Experimental data as given in patent publication US7390523B2, “Method of forming a diffusion barrier layer for implantable devices” (Advanced Cardiovascular Systems Inc., priority 2000, dated 2008).
“And” between values parts separate entries of the source, which are not always exact repeats. Identical values can stand only once. *1 amine or outer side, *2 acyl side, *3 side chain or, on linkers, in order; H or OH if unused. Where a SMILES comes first, the peptide text is derived from it. Bridges are numbered along the chain shown (N, C = ends). Roman numbers before positions name the chains, in order. [ ]: non-standard residue; d: D form. Actinocin(9to1) = Cc1c2oc3c(C)ccc(C(=O)[*:1])c3nc-2c(C(=O)[*:2])c(N)c1=O; NMeV = CN[C@H](C(=O)O)C(C)C; Sar = CNCC(=O)O

Columns and labels:
[1] = test system: coronary arteries of a porcine stent injury model; test: Reduction in restenosis in the porcine coronary artery stent injury model; assay type: in vivo, Domestic swine; settings: 28-day endpoint; for Percent Diameter Stenosis, angiographic data (QCA): microporous balloon catheter delivery before stenting
Method: Porcine coronary models were used to assess the degree of the inhibition of neointimal formation in the coronary arteries of a porcine stent injury model by Actinomycin D, delivered with a microporous balloon catheter (1×10^6 pores/mm^2 with sizes ranging from 0.2-0.8 micron).
The preclinical animal testing was performed in accordance with the NIH Guide for Care and Use of Laboratory Animals. Domestic swine were utilized to evaluate effect of the drug on the inhibition of the neointimal formation. Each testing procedure, excluding the angiographic analysis at the follow-up endpoints, was conducted using sterile techniques. During the study procedure, the activated clotting time (ACT) was monitored regularly to ensure appropriate anticoagulation. Base line blood samples were collected for each animal before initiation of the procedure. Quantitative coronary angiographic analysis (QCA) and intravascular ultrasound (IVUS) analysis was used for vessel size assessment.
The vessels at the sites of the delivery were denuded by inflation of the PTCA balloons to 1:1 balloon to artery ratio and moving the balloons back and forth 5 times. The drug was delivered to the denuded sites at 3.5 atm (3.61 Kg/sq cm) for 2 minutes using the microporous balloon catheters before stent deployment. The average volume of delivery was about 3.3+/−1.2 ml. Following drug delivery, stents were deployed at the delivery site such that final stent to artery ratio was 1.1:1.
QCA and IVUS analyses were used for stent deployment guidance. Pre-stenting IVUS measurements of the lumen size at the targeted vessel sites were performed for determination of the balloon (size) inflation pressure. Quantitative analysis of the stented coronary arteries to compare pre-stenting, post-stenting, follow-up minimal luminal diameters, stent recoil, and balloon/stent to artery ratio were performed. Following stent implantation and final angiogram, all devices were withdrawn and the wounds closed; the animals were allowed to recover from anesthesia as managed by the attending veterinarian or animal care professionals at the research center.
Upon return to the research laboratory at the 28-day endpoint, angiographic assessments were performed. Coronary artery blood flow was assessed and the stented vessels were evaluated to determine minimal lumen diameter. The animals were euthanized following this procedure at the endpoint. Following euthanasia, the hearts were pressure perfusion fixed with formalin and prepared for histological analysis, encompassing light microscopy, and morphometry. Morphometric analysis of the stented arteries included assessment of the position of the stent struts and determination of vessel/lumen areas, percent (%) stenosis, injury scores, intimal and medial areas and intima/media ratios. Percent stenosis is quantitated by the following equation: 100(IEL area−lumen area)/IEL area
where IEL is the internal elastic lamia.
The control group of animals received delivery of water instead of the drug. The test group of animals received actinomycin D in two different concentration of 10^−5M and 10^−4M. […] FIGS. 5A and 5B illustrate sample pictures of the histology slides of the coronary vessels from the control and the Dose 1 group, respectively.

[2] = 24 hour elution of vinblastine from EVOH coated stents in phosphated saline solution, HPLC analysis; assay type: physicochemical; settings: for ug Release: Sterilized (electron beam) stent, 5 ml phosphated saline pH 7.4, room temperature; for Total uG Released / uG Release per Hour: Sterilized stent
Method: MULTI-LINK® stents were cleaned by placement in an ultrasonic bath of isopropyl alcohol solution for 10 minutes. The stents were dried and plasma cleaned in a plasma chamber. An EVOH solution was made with 1 gram of EVOH and 7 grams of DMSO, making an EVOH:DMSO ratio of 1:7. Vinblastine was added to the 1:7 EVOH:DMSO solution. Vinblastine constituted 2.5% by weight of the total weight of the solution. The solution was vortexed and placed in a tube. The cleaned MULTI-LINK® stents were attached to mandrel wires and dipped into the solution. The coated stents were passed over a hot plate, for about 3-5 seconds, with a temperature setting of about 60° C. The coated stents were cured for 6 hours in an air box then placed in a vacuum oven at 60° C. for 24 hours. The above process was repeated twice, having a total of three layers. The average weight of the coating was 0.00005 gram, with an estimated vinblastine concentration of 12 microgram per stent. Some of the stents were sterilized by electron beam radiation. The sterilized and unsterilized vinblastine coated stents were tested for a 24 hour elution period by placing one sterilized and one unsterilized stent in 5 ml of phosphated saline solution (pH 7.4) at room temperature with rotational motion. The amount of vinblastine eluted was evaluated by High Performance Liquid Chromatography (HPLC) analysis. The results of this test are given below in Tables 4A and 4B and plotted in FIG. 3.

Cc1c2oc3c(C)ccc(C(=O)N[C@@H]4C(=O)N[C@H](C(C)C)C(=O)N5CCC[C@H]5C(=O)N(C)CC(=O)N(C)[C@@H](C(C)C)C(=O)O[C@@H]4C)c3nc-2c(C(=O)N[C@@H]2C(=O)N[C@H](C(C)C)C(=O)N3CCC[C@H]3C(=O)N(C)CC(=O)N(C)[C@@H](C(C)C)C(=O)O[C@@H]2C)c(N)c1=O [actinomycin D] (I: T[dV]P[Sar][NMeV] / II: T[dV]P[Sar][NMeV]; ester I:1-I:C, II:1-II:C; linker I:N-II:N via Actinocin(9to1))
Percent Stenosis (IEL area-lumen area)/IEL area, histomorphometric data ([1]; DOSE 1 1E−05 M, n = 30): 51.8%
Residual Lumen (Lumen area)/IEL area, histomorphometric data ([1]; DOSE 1 1E−05 M, n = 30): 0.49
Percent Diameter Stenosis, angiographic data (QCA) ([1]; DOSE 1 1E−05 M, n = 10): 36.8%
Percent Stenosis (IEL area-lumen area)/IEL area, histomorphometric data ([1]; DOSE 2 1E−04 M, n = 21): 54.1%
Residual Lumen (Lumen area)/IEL area, histomorphometric data ([1]; DOSE 2 1E−04 M, n = 21): 0.46
Percent Diameter Stenosis, angiographic data (QCA) ([1]; DOSE 2 1E−04 M, n = 7): 32.3+/−11.7% and 32.3%

CC[C@]1(O)C[C@@H]2CN(CCc3c([nH]c4ccccc34)[C@@](C(=O)OC)(c3cc4c(cc3OC)N(C)[C@H]3[C@@](O)(C(=O)OC)[C@H](OC(C)=O)[C@]5(CC)C=CCN6CC[C@]43[C@@H]65)C2)C1 [Vinblastine]
ug Release ([2]; 0 Hours): 0 µg
ug Release ([2]; 0.5 Hours): 2.14 µg
ug Release ([2]; 3 Hours): 1.7 µg
ug Release ([2]; 4 Hours): 0.28 µg
ug Release ([2]; 6 Hours): 0.26 µg
ug Release ([2]; 24 Hours): 2.05 µg
Total uG Released ([2]; 0 Hours): 0 uG
uG Release per Hour ([2]; 0 Hours): 0 uG per Hour
Total uG Released ([2]; 0.5 Hours): 2.14 uG
uG Release per Hour ([2]; 0.5 Hours): 4.28 uG per Hour
Total uG Released ([2]; 3 Hours): 3.84 uG
uG Release per Hour ([2]; 3 Hours): 0.68 uG per Hour
Total uG Released ([2]; 4 Hours): 4.12 uG
uG Release per Hour ([2]; 4 Hours): 0.28 uG per Hour
Total uG Released ([2]; 6 Hours): 4.38 uG
uG Release per Hour ([2]; 6 Hours): 0.13 uG per Hour
Total uG Released ([2]; 24 Hours): 6.43 uG
uG Release per Hour ([2]; 24 Hours): 0.11 uG per Hour
effect of electron beam radiation procedure on the release of vinblastine from EVOH ([2]; sterilized vs unsterilized coated stents, 24 hour elution): does not interfere
